The values that follow come from US9090632B2, “Bicyclic oxazole and thiazole compounds and their use as allosteric modulators of mGluR5 receptors” (Vanderbilt University, priority 2010, dated 2015).

The assay has as its target human mGluR5 (Homo sapiens, UniProt P41594). Nature of the assay: Cell-based functional Ca2+ mobilization assay, potentiation of glutamate EC20 response (H10H cell-line). As to conditions: H10H cell-line expressing recombinant human mGluR5; for Emax / Emax (%): in presence of glutamate EC20, normalized to maximal glutamate response; for EC50 / pEC50: potentiation in presence of glutamate EC20. As for the experimental part:
Human embryonic kidney (HEK) cells transfected with rat mGluR5 were plated in clear bottom assay plates for assay in a Functional Drug Screening System (FDSS). In the alternative assay, HEK cells transfected with human mGluR5 were plated for assay in the FDSS. In some cases the HEK cells transfected with human mGluR5 are the H10H cell line. Alternatively, the HEK cells transfected with human mGluR5 are the H12H cell line. […] The cells were loaded with a Ca^2+-sensitive fluorescent dye (e.g., Fluo-4), and the plates were washed and placed in the FDSS instrument. After establishment of a fluorescence baseline for about three seconds, the compounds of the present invention were added to the cells, and the response in cells was measured. Five minutes later, an mGluR5 agonist (e.g., glutamate, 3,5-dihydroxyphenylglycine, or quisqualate) was added to the cells, and the response of the cells was measured. Potentiation of the agonist response of mGluR5 by the compounds in the present invention was observed as an increase in response to non-maximal concentrations of agonist (here, glutamate) in the presence of compound compared to the response to agonist in the absence of compound.
The above described assay can be operated in two modes. In the first mode, a range of concentrations of the present compounds were added to cells, followed by a single fixed concentration of agonist. If a compound acted as a potentiator, an EC50 value for potentiation and a maximum extent of potentiation by the compound at this concentration of agonist was determined by non-linear curve fitting. In the second mode, several fixed concentrations of the present compounds were added to various wells on a plate, followed by a range of concentrations of agonist for each concentration of present compound; the EC50 values for the agonist at each concentration of compound were determined by non-linear curve fitting. A decrease in the EC50 value of the agonist with increasing concentrations of the present compounds (a leftward shift of the agonist concentration-response curve) is an indication of the degree of mGluR5 potentiation at a given concentration of the present compound. An increase in the EC50 value of the agonist with increasing concentrations of the present compounds (a rightward shift of the agonist concentration-response curve) is an indication of the degree of mGluR5 antagonism at a given concentration of the present compound. The second mode also indicates whether the present compounds also affect the maximum response to mGluR5 to agonists.
Human mGluR5a cDNA in pCMV6-XL6 mammalian expression plasmid was purchased from OriGene Technologies, Inc. (catalogue number SC326357) and subcloned into pcDNA3.1(−). Human embryonic kidney (HEK) 293A cells were then transfected with human mGluR5a pcDNA3.1(−) using LipofectAmine 2000 (Invitrogen) and monoclones were selected and tested for functional response using a Ca^2+ mobilization assay. Monoclones were named for the species (“H” for human) plus the location on the plate (e.g. “10H”).
HEK cells transfected with the human mGluR5a receptor were plated at 15,000 cells/well in clear-bottomed poly-D-lysine-coated assay plates (BD Falcon) in glutamate-glutamine-free growth medium and incubated overnight at 37° C. and 5% CO2. The cell-line used to obtain the data reported herein was the H10H cell-line expressing the human mGluR5 receptor. Although the H10H cell-line was used to obtain the data shown herein, the H12H cell-line expressing the human mGluR5 receptor can also be used in these assays. The following day, the growth medium was removed and the cells were washed with assay buffer containing 1× Hank's balanced salt solution (Invitrogen, Carlsbad, Calif.), 20 mM HEPES, 2.5 mM probenecid, pH 7.4 and left with 20 μL of this reagent. Following this step, the cells were loaded with calcium indicator dye, fluo-4 AM, to a final concentration of 2 μM and incubated for 40-45 min at 37° C. […]

Sequence of human mGluR5 (P41594 21-1180 isoform P41594-2 limits assumed): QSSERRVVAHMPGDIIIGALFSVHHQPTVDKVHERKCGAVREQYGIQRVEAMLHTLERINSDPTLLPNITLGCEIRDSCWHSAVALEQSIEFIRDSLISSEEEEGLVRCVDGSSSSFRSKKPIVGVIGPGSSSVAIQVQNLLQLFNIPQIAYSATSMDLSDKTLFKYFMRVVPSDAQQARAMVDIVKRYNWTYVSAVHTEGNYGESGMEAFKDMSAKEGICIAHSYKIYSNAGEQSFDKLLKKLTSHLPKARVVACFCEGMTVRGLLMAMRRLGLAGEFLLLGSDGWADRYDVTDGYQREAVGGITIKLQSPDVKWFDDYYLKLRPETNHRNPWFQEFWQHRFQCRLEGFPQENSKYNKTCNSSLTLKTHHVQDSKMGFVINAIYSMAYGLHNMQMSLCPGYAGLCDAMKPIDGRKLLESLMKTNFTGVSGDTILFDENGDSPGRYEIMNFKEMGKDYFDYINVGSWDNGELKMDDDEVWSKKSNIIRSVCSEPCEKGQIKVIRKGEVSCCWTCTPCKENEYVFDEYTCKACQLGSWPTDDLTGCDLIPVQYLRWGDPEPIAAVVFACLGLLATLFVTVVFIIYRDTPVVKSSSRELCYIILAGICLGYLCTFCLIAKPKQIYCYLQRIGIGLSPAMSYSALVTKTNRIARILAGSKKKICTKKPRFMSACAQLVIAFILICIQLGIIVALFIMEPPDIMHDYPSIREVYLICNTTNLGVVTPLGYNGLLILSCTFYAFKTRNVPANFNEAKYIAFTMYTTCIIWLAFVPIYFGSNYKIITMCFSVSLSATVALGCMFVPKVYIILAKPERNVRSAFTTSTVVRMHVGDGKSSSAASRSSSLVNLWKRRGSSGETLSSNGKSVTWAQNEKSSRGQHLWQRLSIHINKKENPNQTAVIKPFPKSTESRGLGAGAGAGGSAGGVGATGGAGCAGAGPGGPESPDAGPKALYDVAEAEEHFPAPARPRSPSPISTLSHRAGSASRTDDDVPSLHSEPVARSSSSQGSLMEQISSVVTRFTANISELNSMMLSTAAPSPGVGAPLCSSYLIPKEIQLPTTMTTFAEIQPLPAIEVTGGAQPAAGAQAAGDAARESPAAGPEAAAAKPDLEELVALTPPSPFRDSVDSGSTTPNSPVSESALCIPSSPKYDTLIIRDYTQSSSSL

For `O=C(c1ccc(F)cc1)N1CCc2nc(COc3cccc(F)c3)oc2C1` [Example B8, 5-(4-fluorobenzoyl)-2-[(3-fluorophenoxy)methyl]-4,5,6,7-tetrahydro-oxazolo[5,4-c]pyridine], the maximal effect (Emax) stood at 74% and the EC50 was 0.219 µM.

With `O=C(c1cccc(F)c1F)N1CCc2nc(COc3ccccc3)oc2C1` [Example B15], the “Emax (%)” value was 74% and the pEC50 came out at 6.43.

For the molecule `O=C(c1ccc(F)cc1)N1CCc2nc(COc3ccccc3C(F)(F)F)oc2C1` [Example B130], the maximal effect (Emax) was found to be 22% and the EC50 is > 30.2 µM.

With `N#Cc1cc(F)cc(OCc2nc3c(o2)CN(C(=O)c2ccc(F)cc2)CC3)c1` [Example B136], the “Emax (%)” value came out at 45% and the negative-log EC50 (pEC50) was <5.

As for `N#Cc1cc(F)cc(C(=O)N2CCc3nc(COc4cccc(F)c4)oc3C2)c1` [Example B92], the “Emax (%)” value is listed as 52% and the pEC50 is on record as 6.73.

Consider `O=C(Cc1c[nH]cn1)N1CCc2nc(COc3ccccc3)oc2C1.O=C(O)C(F)(F)F` [Example B155], for which the “Emax (%)” value worked out at 30% and the pEC50 is <4.52.

For `O=C(c1ncc[nH]1)N1CCc2nc(COc3ccccc3)oc2C1` [Example B153], the maximal effect (Emax) stood at 32% and the EC50 is > 30.2 µM.

As to `O=C(c1ncccc1Cl)N1CCc2nc(COc3ccccc3)oc2C1` [Example B74], the Emax came to 57% and the EC50 is > 10 µM.

As to `O=C(c1ccc(F)cc1F)N1CCc2nc(COc3ccccc3)oc2C1` [Example B6], the Emax was 92% and the 50% effective concentration (EC50) was 0.501 µM.

`O=C(c1ccc(F)c(F)c1)N1CCc2nc(COc3ccccc3)oc2C1` [Example B17]: the “Emax (%)” value was found to be 86% and the pEC50 stood at 6.60.

Turning to `O=C(c1ncc(F)cc1F)N1CCc2nc(COc3ccccc3)oc2C1` [Example B38], the Emax worked out at 60% and the EC50 was 4.07 µM.

Regarding `O=C(c1ccc(F)cc1)N1CCc2nc(/C=C/c3ccccc3)oc2CC1` [Example B31, 6-(4-fluorobenzoyl)-5,6,7,8-tetrahydro-2-[(E)-2-phenylethenyl]-4H-oxazolo[4,5-d]azepine], the maximal response (Emax) was 47% and the EC50 is 1.82 µM.

With `Cc1ncc(C(=O)N2CCc3nc(COc4ccccc4)oc3C2)cn1` [Example B135], the Emax was found to be 36% and the concentration giving a half-maximal response (EC50) is > 10 µM.

As for `Cc1cc(C(=O)N2CCc3nc(COc4ccccc4)oc3C2)no1` [Example B157], the “Emax (%)” value is 45% and the pEC50 was <5.

Turning to `O=C(c1ncco1)N1CCc2nc(COc3ccccc3)oc2C1` [Example B60], the Emax amounted to 39.5% and the EC50 is 2 µM.

As for `O=C(c1c[nH]c2ccccc12)N1CCc2nc(COc3ccccc3)oc2C1` [Example B117], the “Emax (%)” value stood at 69% and the negative logarithm of the EC50 (pEC50) came out at 6.60.

`O=C(c1ccc(C(F)(F)F)o1)N1CCc2nc(COc3ccccc3)oc2C1` [Example B122]: the “Emax (%)” value is 68% and the pEC50 is given as 6.67.

On to `N#Cc1cc(Br)cc(OCc2nc3c(o2)CN(C(=O)c2ccc(F)cc2)CC3)c1` [Example B137], for which the “Emax (%)” value came to 24% and the pEC50 is given as <4.52.

Turning to `O=C(c1cc(F)cc(F)c1)N1CCc2nc(COc3ccccc3)oc2C1` [Example B3, 5-[(3,5-difluorophenyl)carbonyl]-2-(phenoxymethyl)-4,5,6,7-tetrahydro[1,3]oxazolo[5,4-c]pyridine], the Emax was found to be 47% and the EC50 was 0.132 µM.

In the case of `O=C(c1ccncc1)N1CCc2nc(COc3ccccc3)oc2C1` [Example B19], the maximal response (Emax) was 69% and the EC50 was 4.79 µM.

For `O=C(c1cn[nH]c1)N1CCc2nc(COc3ccccc3)oc2C1` [Example B56], the “Emax (%)” value came out at 50% and the pEC50 is recorded as <5.

As for `Cc1ccoc1C(=O)N1CCc2nc(COc3ccccc3)oc2C1` [Example B121], the “Emax (%)” value is 51% and the pEC50 is given as 6.72.
